Like-named read-outs stand apart in the source and are kept apart here.
Columns and labels:
cellular receptors = test: Off-target effects on cellular receptors
TT = test: Cell proliferation, TT squamous carcinoma cell line; format: cell-based, human; conditions: 250 nM, 72 hours
Protocol: (§1) Data is presented as mean±s.d. (n=3). IC50 values were calculated by logistic regression.

BRD3-NUT cells = test: BRD3-NUT murine xenograft model; format: in vivo, mouse; conditions: 50 mg/kg IP 7 days/week
Text: Mice were implanted subcutaneously with BRD3-NUT cells. Tumor measurement data were collected weekly. […] On day 24 post-injection, five mice from each group were euthanized and tumor samples were collected to be sent for lab analysis. Throughout the remainder of the study tumor samples were collected as mice were sacrificed. For all samples one half of the tumor was fixed in 10% formalin and the other half was flash frozen on dry ice. Treatment ended on day 32. Tumor volume and weights were collected weekly until all mice either became moribund or tumors reached 2 cm in any dimension. […] Upon cessation of therapy, tumor growth resumed. Tumor volume differences were significant at all points (p=7.65274E-09 at Day 24).

GFP-BRD4 = GFP-BRD4 (Homo sapiens (Human), UniProt O60885); test: FRAP in U2OS cells transfected with GFP-BRD4; format: cell-based
Protocol: (§4) FRAP studies were performed on U2OS cells as previously described^3,20. In brief, U2OS cells were transfected (lipofectamine; Invitrogen) with mammalian overexpression constructs encoding GFP chimera with BRD4, NUT and BRD4-NUT. A 5 μm^2 nuclear region was bleached with high laser intensity in one cell within each field, and measured for recovery with low laser intensity and a 150 μm pinhole. Images of identical fields were acquired using a Nikon C1 Plus confocal microscope equipped with a 37° C. heated chamber and FRAP modules over 90 seconds. Average intensities of the bleached region were measured over time and using MetaMorph v7, and normalized to an independent region of interest before bleaching.

GFP-NUT = GFP-NUT (Homo sapiens (Human), UniProt Q86Y26); test: FRAP in cells transfected with GFP-NUT; conditions: 500 nM
GFP-NUT, sequence (Q86Y26 whole entry, looked up): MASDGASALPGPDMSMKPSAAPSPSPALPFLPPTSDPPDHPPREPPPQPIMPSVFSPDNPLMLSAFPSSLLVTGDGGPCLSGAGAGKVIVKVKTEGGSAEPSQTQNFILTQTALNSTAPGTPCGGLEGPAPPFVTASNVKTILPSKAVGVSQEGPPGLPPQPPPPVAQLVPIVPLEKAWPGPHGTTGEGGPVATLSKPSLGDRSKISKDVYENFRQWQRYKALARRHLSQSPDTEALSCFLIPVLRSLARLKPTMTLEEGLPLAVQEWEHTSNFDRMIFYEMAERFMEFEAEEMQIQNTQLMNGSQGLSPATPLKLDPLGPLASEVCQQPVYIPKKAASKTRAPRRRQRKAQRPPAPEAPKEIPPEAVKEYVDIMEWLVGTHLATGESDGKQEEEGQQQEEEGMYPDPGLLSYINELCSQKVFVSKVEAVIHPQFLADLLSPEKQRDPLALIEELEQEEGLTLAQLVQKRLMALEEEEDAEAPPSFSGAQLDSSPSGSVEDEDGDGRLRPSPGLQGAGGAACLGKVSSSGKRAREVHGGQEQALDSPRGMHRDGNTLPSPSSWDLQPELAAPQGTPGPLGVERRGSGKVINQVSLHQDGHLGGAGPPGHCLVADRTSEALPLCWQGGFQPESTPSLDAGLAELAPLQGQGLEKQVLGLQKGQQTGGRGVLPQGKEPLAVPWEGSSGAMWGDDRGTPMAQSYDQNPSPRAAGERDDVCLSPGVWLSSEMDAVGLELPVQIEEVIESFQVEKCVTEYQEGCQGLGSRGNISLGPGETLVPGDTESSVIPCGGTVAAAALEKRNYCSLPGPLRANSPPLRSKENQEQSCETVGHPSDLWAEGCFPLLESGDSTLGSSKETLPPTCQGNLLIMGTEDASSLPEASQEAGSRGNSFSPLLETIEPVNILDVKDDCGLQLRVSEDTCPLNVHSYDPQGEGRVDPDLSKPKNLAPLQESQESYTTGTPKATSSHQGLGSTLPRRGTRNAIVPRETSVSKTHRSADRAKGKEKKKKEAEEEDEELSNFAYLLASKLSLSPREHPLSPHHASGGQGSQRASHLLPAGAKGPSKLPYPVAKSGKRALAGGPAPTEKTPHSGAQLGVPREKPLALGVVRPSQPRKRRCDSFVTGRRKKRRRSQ
Protocol: as §4

TE10 [1] = test: Differentiation immunohistochemistry in non-BRD4-dependent squamous carcinoma cell line
Protocol: Media was then removed and chambers were washed with cold PBS. Cells were then fixed in 4% formaldehyde for 20 minutes at 4° C., washed with PBS and transferred to the Dana-Farber/Harvard Cancer Center (DF/HCC) Specialized Histopathology Services Core at Brigham and Women's Hospital for staining, as described below. […] Cells were then trypsinized and cell pellets were formed by centrifugation at 2,000 rpm for 10 minutes, stabilized with ½ volume of HistoGel (Richard-Allen Scientific) and 10% bovine serum albumin. Cell pellets were washed with PBS and fixed in 4% formaldehyde for 20 minutes at 4° C. The cells were then washed with PBS and transferred to the DF/HCC Core Laboratory at the Brigham and Women's Hospital for staining, as described below. […] All fixed material was embedded, sectioned and stained by the DF/HCC Core Laboratory at Brigham and Women's Hospital, using established optimized protocols. Images were obtained using an Olympus BX40 microscope (Olympus Imaging America, Center Valley, Pa.) and a Micropublisher 3.3 RTV color camera (QImaging, Surrey, BC).

GFP-BRD4-NUT = GFP-BRD4-NUT (Homo sapiens (Human), UniProt O60885+Q86Y26); conditions: 500 nM
Protocol: as §4

[2] = tested on: BRD4-dependent human carcinoma cells; test: Annexin-V / propidium iodide flow cytometry (apoptosis); format: cell-based; conditions: 500 nM, 24 or 48 hours
Protocol: (§2) Thus, early and late apoptosis was assessed with annexin-V and propidium iodide staining by flow cytometry.
Trypsinized cells were mixed 1:1 on ice with Annexin-V/propidium iodide buffer (10 mM HEPES pH 7.4, 140 mM NaCl, 2.5 mM CaCl2) containing Annexin V-FITC (BD Pharmingen, 1:500) and propidium iodide (Invitrogen, 1:1000). Samples were immediately analyzed on a BD FACS Canto II. Visualizations and analyses of apoptotic fractions were generated using FlowJo flow cytometry analysis software (Tree Star, Inc.).

TE10 [3] = test: Cell proliferation, TE10 squamous carcinoma cell line; format: cell-based, human; conditions: 250 nM, 72 hours
Protocol: as §1

NMC 797 xenografts = test: NMC 797 xenograft efficacy study; format: in vivo, mouse
Text: Animals were followed daily for clinical symptoms.

Per403 cells = test: cells; conditions: Homo sapiens, PER-403, 72 h, read-out: Per403 IC50 (inhibition of cell growth)
Protocol: as §2

NMC 11060 xenografts = test: Patient-derived NMC 11060 primary xenograft, PET imaging; format: in vivo, mouse; conditions: 50 mg kg^-1 daily for four days
Text: (§3) In parallel with these studies, a patient with widely metastatic BRD4-NUT positive NMC arising from the mediastinum was identified. With the goal of developing a more clinically-relevant disease model, short-term cultures were established using discarded clinical material obtained from pleural fluid draining from a palliative chest tube in the patient.

NMC 797 and Per403 cells = test: Differentiation and proliferation immunohistochemistry in NMC cells; format: cell-based, human; conditions: BRD4-dependent NMC cells
NMC 11060 cells = test: cells; conditions: Homo sapiens, NMC 11060, 72 h, read-out: cellular viability IC50
Protocol: Data is presented as mean±s.d. (n=3). IC50 values were calculated by logistic regression. […] (n=3).
as §3

10326 cells = test: Cell proliferation assay, 10326 patient-derived cell line; format: cell-based; conditions: Homo sapiens, read-out: Cell-assay IC50 10326 cells
Protocol: Curve fit was calculated by logistical regression (FIG. 56C). […] Curve fit was calculated by logistical regression.

797 cells = test: Cell proliferation assay, 797 NMC cell line; format: cell-based; conditions: Homo sapiens, read-out: Cell-assay IC50 797 cells
Protocol: Curve fit was calculated by logistical regression.
Cells were seeded into white, 384-well microtiter plates (Nunc) at 500 cells per well in a total volume of 50 μL media. […] Compounds were delivered to microtiter assay plates by robotic pin transfer (PerkinElmer JANUS equipped with a V&P Scientific 100 nL pin tool). Following a 48 h incubation at 37° C., cells were lysed and wells were assessed for total ATP content using a commercial proliferation assay (Cell TiterGlo; Promega). Replicate measurements were analyzed with respect to dose and estimates of IC50 were calculated by logistic regression (GraphPad Prism).

BRD4(1) = BRD4(1) (Homo sapiens (Human), UniProt O60885); test: Alpha-assay acetyl-histone binding, BRD4 site 1
Protocol: The binding activity of lead compounds with the BRD4 site 1 was determined by Alpha-assay with a 12-point dose response curve (FIG. 56A).
Assays were performed as described previously^8 with minor modifications from the manufacturer's protocol (PerkinElmer, USA). All reagents were diluted in 50 mM HEPES, 100 mM NaCl, 0.1% BSA, pH 7.4 supplemented with 0.05% CHAPS and allowed to equilibrate to room temperature prior to addition to plates. […] Plates were sealed and incubated for a further 30 minutes, before the addition of 4 μl of streptavidin-coated donor beads (25 μg/ml) and 4 μl nickel chelate acceptor beads (25 μg/ml) under low light conditions. Plates were foil-sealed to protect from light, incubated at room temperature for 60 minutes and read on a PHERAstar FS plate reader (BMG Labtech, Germany) using an AlphaScreen 680 excitation/570 emission filter set. IC50 values were calculated in Prism 5 (GraphPad Software, USA) after normalization against corresponding DMSO controls and are given as the final concentration of compound in the 20 μl reaction volume.

BRD4(2) = BRD4(2) (Homo sapiens (Human), UniProt O60885); test: Alpha-assay acetyl-histone binding, BRD4 site 2

Which “off-target effects on cellular receptors” value (cellular receptors) does the source give for `Cc1sc2c(c1C)C(c1ccc(Cl)cc1)=NC(CC(=O)OC(C)(C)C)c1nnc(C)n1-2` (racemic) [JQ1, tert-Butyl 2-(4-(4-chlorophenyl)-2,3,9-trimethyl-6H-thieno[3,2-f][1,2,4]triazolo[4,3-a][1,4]diazepin-6-yl)acetate] here?
The value was “few off-target effects”.

And the “effects on cell proliferation” value (TT)?
The value was “Minimal effects”.

What about the body weight (BRD3-NUT cells) of the same compound?
The body weight was “mild weight loss”.

What about the tumor volume (BRD3-NUT cells) of the same compound?
Its tumor volume is “tumor regression”.

What about the “fluorescence recovery of GFP-BRD4” value (GFP-BRD4; 500 nM) of the same compound?
The value was “immediate”.

And the “redistribution of GFP-NUT” value (GFP-NUT)?
Its value is “no effect”.

And the differentiation effects (TE10 [1])?
The differentiation effects was “fails to exhibit differentiation effects”.

And the “time-to-recovery of fluorescence intensity, GFP-BRD4-NUT” value (GFP-BRD4-NUT)?
Its value is “markedly accelerated”.

What about the “apoptosis (annexin-V and propidium iodide staining)” value [2] of the same compound?
Its value is “induced immediate and progressive apoptosis”.

And the “effects on cell proliferation” value (TE10 [3])?
Its value is “Minimal effects”.

What about the “tolerability (toxicity, weight loss)” value (NMC 797 xenografts; 50 mg kg^-1 daily IP, 14 days) of the same compound?
The value was “well tolerated”.

And the “tumor growth (tumor volume by caliper)” value (NMC 797 xenografts; 50 mg kg^-1 daily IP, 14 days)?
The value was “statistically-significant reduction in tumor growth”.

And the “FDG uptake by PET imaging” value (NMC 797 xenografts; 50 mg kg^-1 daily IP, four days)?
Its value is “marked response on FDG uptake”.

What about the “keratin expression by quantitative IHC” value (NMC 797 xenografts; excised tumor specimens) of the same compound?
The value was “strong (3+) keratin expression”.

Which results are given for `Cc1sc2c(c1C)C(c1ccc(Cl)cc1)=N[C@@H](CC(=O)OC(C)(C)C)c1nnc(C)n1-2` (single isomer, unassigned) [(+)-JQ1]?
fluorescence recovery of GFP-BRD4 (GFP-BRD4; 250 nM, 5 h): enhanced recovery; IC50 (Per403 cells): 0.06 µM; keratin expression by quantitative IHC (NMC 11060 xenografts): induction of keratin expression; differentiation and growth arrest phenotypes (NMC 797 and Per403 cells): prompted; IC50 (NMC 11060 cells): 0.004 µM

What does the source list for `Cc1sc2c(c1C)C(c1ccc(Cl)cc1)=N[C@H](CC(=O)OC(C)(C)C)c1nnc(C)n1-2` [(R)-JQ1]?
IC50 (10326 cells; 72 h): 11800 nM; IC50 (797 cells; 72 h): 1540 µM

With `Cc1sc2c(c1C)C(c1ccc(Cl)cc1)=N[C@@H](CC(=O)OC(C)(C)C)c1nnc(C)n1-2` [(S)-JQ1, (S)-tert-Butyl 2-(4-(4-chlorophenyl)-2,3,9-trimethyl-6H-thieno[3,2-f][1,2,4]triazolo[4,3-a][1,4]diazepin-6-yl)acetate] as the compound, how does the IC50 (10326 cells; 72 h) read?
Its IC50 is 1.5 nM.

What about the IC50 (797 cells; 72 h) of the same compound?
Its IC50 is 0.0056 µM.

How did the “binding activity with the BRD4 site 1” value (BRD4(1)) turn out when `Cc1sc2c(c1C)C(c1ccc(Cl)cc1)=N[C@@H](CC(=O)N/N=C/c1ncc[nH]1)c1nnc(C)n1-2` [JQ6] was run?
The value was “excellent binding activity”.

What about the “binding activity with the BRD4 site 2” value (BRD4(2)) of the same compound?
Its value is “excellent binding activity”.

And the IC50 (10326 cells; proliferation after 72 hours)?
The IC50 was 0.051 nM.

What about the IC50 (797 cells; proliferation after 72 hours) of the same compound?
The IC50 was 0.001 µM.

Which “binding activity with the BRD4 site 1” value (BRD4(1)) does the source give for `Cc1sc2c(c1C)C(c1ccc(Cl)cc1)=N[C@@H](CC(=O)NCCc1cnc[nH]1)c1nnc(C)n1-2` [JQ8] here?
The value was “excellent binding activity”.

What about the “binding activity with the BRD4 site 2” value (BRD4(2)) of the same compound?
Its value is “excellent binding activity”.

What about the IC50 (10326 cells; proliferation after 72 hours) of the same compound?
Its IC50 is 2.8 nM.

What about the IC50 (797 cells; proliferation after 72 hours) of the same compound?
The IC50 was 0.6 µM.

`Cc1sc2c(c1C)C(c1ccc(Cl)cc1)=N[C@@H](CC(=O)NCCN1CCN(C)CC1)c1nnc(C)n1-2` [JQ13] was tested. Which “binding activity with the BRD4 site 1” value (BRD4(1)) did it give?
The value was “excellent binding activity”.

And the “binding activity with the BRD4 site 2” value (BRD4(2))?
Its value is “excellent binding activity”.

Which results are given for `Cc1sc2c(c1C)C(c1ccc(Cl)cc1)=NC(CC(=O)NCCN1CCOCC1)c1nnc(C)n1-2` (stereo not drawn) [JQ33]?
IC50 (10326 cells; proliferation after 72 hours): 8 nM; IC50 (797 cells; proliferation after 72 hours): 0.00297 µM

What does the source list for `Cc1sc2c(c1C)C(c1ccc(Cl)cc1)=NC(CC(=O)NCCCN1CCN(C)CC1)c1nnc(C)n1-2` (stereo not drawn) [JQ35]?
binding activity with the BRD4 site 1 (BRD4(1)): excellent binding activity; binding activity with the BRD4 site 2 (BRD4(2)): excellent binding activity; IC50 (10326 cells; proliferation after 72 hours): 3 nM; IC50 (797 cells; proliferation after 72 hours): 0.00609 µM
